The test system of data set [1] is MCF7Ca cells. Nature of the data set: Apoptosis/necrosis of MCF7Ca cells, nuclear morphology after Hoechst and propidium iodide staining. In kind it is cell-based. The settings on record: for apoptotic cell death, each drug individually: MCF7Ca treated with each drug individually. As for the experimental part:
(§1) Breast cancer cells MCF7Ca (gift from Dr Chen, NY, USA) are used. Letrozole and zoledronic acid are provided by Novartis AG, Basel, Switzerland.
Following the initial dose-response studies the sequential and combined treatments are carried out using 10 μM zoledronic acid and 100 nM letrozole for 24 hours each, followed by a drug-free incubation period up to 24 hours. In some additional studies 1 μM zoledronic acid is used for 1 hour only.
The levels of apoptotic/necrotic tumour cell death are determined by evaluation of nuclear morphology following staining of the cells using Hoechst and propidium iodide.
The levels of apoptosis and necrosis caused by increasing doses of zoledronic acid is determined by expressing the cells to zoledronic acid for 1 hour, followed by a 72 hour incubation in drug-free medium. [drawing]
The levels of apoptosis caused by increasing doses of letrozole is determined by exposing the cells to letrozole for 72 hours. [drawing]
Cells are treated with a combination of 100 nM letrozole and 10 μM zoledronic acid for 24 hours, and the levels of apoptotic cell death determined following an additional 48 hours incubation in drug-free medium. [drawing]
In this series of experiments the cells are exposed to 10 μM zoledronic acid for 24 hours, washed and subsequently treated with 100 nM letrozole for 24 hours. The levels of apoptotic cell death are determined following a further 24 hours incubation in drug-free medium. [drawing]
(GGOH is an intermediary of the mevalonate pathway and is commonly used to reverse the effects of zoledronic acid inhibition of this pathway). In this set of experiments cells are treated with 100 nM letrozole for 24 hours followed by 1 hour treatment with 10 μM zoledronic acid+50 μM GGOH. The level of apoptosis is determined at 72 hours.
These experiments are performed in order to determine if the effects of zoledronic acid and letrozole are affected by starving the cells by treating them under serum-free conditions. [drawing]

A further data set relates to MCF7 cells. In words: Apoptosis of MCF7 cells treated with ZOL and/or PAC, evaluated by nuclear morphology. The settings on record: for apoptosis: Experiment 2: 2 nM PAC 4 hours day 1, 1 μM ZOL 1 hour day 2, combined or alone, drug free medium to 48 hours. In kind it is cell-based. As for the experimental part:
MCF7 cells are seeded and pre-incubated then treated with ZOL and/or PAC in the sequences given below. In the case of the PAC then ZOL sequence, in one of the experiments geranylglycerol (GGOH, 50 μM) is added and then removed with the ZOL. Apoptosis is determined by evaluation of nuclear morphology.
Group 1: 25 μM ZOL (for 1 hour on day 1) followed by 2 nM PAC (for 4 hours day 2)
Group 2: 2 nM PAC (for 4 hours on day 1) followed by 25 μm ZOL (for 1 hour on day 2)
Following the last drug exposure the cells in each group are incubated in drug free medium to 48 hours.
2 nM PAC (for 4 hours on day 1) followed by 1 μM ZOL (for 1 hour on day 2). Following the last drug exposure the cells are incubated in drug free medium to 48 hours.
2 nM PAC (for 4 hours on day 1) followed by 25 μM or 1 μM ZOL (for 1 hour on day 2), with or without geranylgeraniol (GGOH) 50 μM (added and removed simultaneously with the ZOL). Following the last drug exposure the cells are incubated in drug free medium to 48 hours.

The test system of data set [2] is MCF7Ca cells. Nature of the data set: MCF7Ca cell growth, cells counted with coulter counter. In kind it is cell-based. The method, then: as §1
MCF7Ca cells are exposed to increasing doses of zoledronic acid for 1 hour, the drug removed and the cells incubated in drug-free medium up to 72 hours. The number of cells are counted using a coulter counter. [drawing]
MCF7Ca cells are exposed to increasing doses of letrozole for 24, 48 and 72 hours. For the 24 and 48 hour time points the drug is removed and the cells incubated in drug-free medium up to 72 hours. The number of cells are counted using a coulter counter. [drawing]

For data set [3] the following is noted: following infusion of ZOL in vivo, for a few hours; cited from earlier work.
The test system of data set [4] is breast cancer lines MDA-MB-426 and MCF7. In words: Apoptosis of breast cancer cells treated with ZOL and TRAIL. Type of data set: cell-based. As to conditions: single agents as controls. As for the experimental part:
The breast cancer lines MDA-MB-426 and MCF7 and the prostate cancer cell line PC3 are treated with ZOL (25 μM and TRAIL (purchased from R&D systems, Abingdon, UK; 10 ng/ml) for varying incubation periods and sequences as follows:
Group 1: TRAIL given first for 24 hours followed by ZOL for 48 hours. […]
Group 3: ZOL and TRAIL given simultaneously for 24 hours.
Group 4: TRAIL given first for 24 hours then ZOL for 4 hours followed by drug-free medium for 48 hours.
Group 5: ZOL given first for 4 hours and cells maintained in drug-free medium for 48 hours followed by TRAIL for 24 hours.

Where [5] appears, read: 100 μM, 1 hour exposure, 72 hour drug-free.
Where [6] appears, read: group 1: TRAIL 10 ng/ml 24 hours followed by ZOL 25 μM 48 hours.
[7] abbreviates: group 2: ZOL 25 μM for 48 hours followed by TRAIL 10 ng/ml.
[8] abbreviates: group 3: ZOL 25 μM and TRAIL 10 ng/ml together for 24 hours.
The mark [9] stands for this setting: 100 nM (highest dose tested), 72 hours.

Consider `CC(C)=CCC/C(C)=C/CC/C(C)=C/CC/C(C)=C/CO` [GGOH, geranylgeraniol], for which, in the data set with MCF7Ca cells [1] (100 nM letrozole 24 hours followed by 1 hour 10 μM zoledronic acid + 50 μM GGOH, apoptosis at 72 hours), the “level of apoptosis with GGOH added” value is “reduced to the same level observed using letrozole alone”. Also, the “prevention of the synergistic increase in apoptotic cell death” value in the data set with MCF7 cells (Experiment 3: PAC followed by ZOL combined with GGOH 50 μM) was 70-80%.
As to `O=P(O)(O)C(O)(Cn1ccnc1)P(=O)(O)O` [ZOL, 2-(imidazol-1yl)-1-hydroxyethane-1,1-diphosphonic acid], in the data set on MCF7Ca cells [2] (1 hour exposure, drug-free medium up to 72 hours), the “doses causing a decrease in the number of MCF7Ca” value was “above 1 μM”. Moreover, in the data set with MCF7Ca cells [1] (setting [5]), the apoptotic cells entry is on record as “less than 3%”. Besides, in the data set on MCF7Ca cells [1] (setting [5]), the necrotic cell death is reported as 4.5%. For the same molecule, in the data set on MCF7Ca cells [1], the “apoptotic cell death, each drug individually” value is listed as “do not induce significant levels of apoptotic cell death”. In addition, the peak plasma concentration in data set [3] was 1 to 2 µM. Moreover, the apoptosis in data set [4] (setting [6]) was found to be 0.5%; in data set [4] (setting [7]) it was 0.7%; in data set [4] (setting [8]), 0.7%; with MCF7 cells it was 0.25%.
Consider `N#Cc1ccc(C(c2ccc(C#N)cc2)n2cncn2)cc1` [letrozole, 4-[α-(4-cyanophenyl)-1-(1,2,4-triazolyl)methyl]-benzonitrile], for which the “effect on cell number at low doses” value in the data set on MCF7Ca cells [2] (0.1 nM (all time points), 1 nM (24 and 48 hours)) was “Increased number of cells”. For the same molecule, in the data set on MCF7Ca cells [2] (100 nM letrozole, 72 hours), the “reduction in cell number compared to control” value came to 31%. In the data set on MCF7Ca cells [1] (setting [9]), the apoptosis result is reported as “less than 3%” and the necrosis result is given as “less than 4%”. The “apoptotic cell death, each drug individually” value in the data set on MCF7Ca cells [1] is “do not induce significant levels of apoptotic cell death”.
Regarding `CC(=O)O[C@H]1C(=O)[C@@]2(C)[C@H]([C@H](OC(=O)c3ccccc3)[C@]3(O)C[C@H](OC(=O)[C@H](O)[C@@H](NC(=O)c4ccccc4)c4ccccc4)C(C)=C1C3(C)C)[C@]1(OC(C)=O)CO[C@@H]1C[C@@H]2O` (relative stereo) [PAC, [2aR-[2aα, 4β, 4αβ, 6αβ, 9α(αR*, βS*),-11α,12α,12aα,12bα]]-β-(benzoylamino)-α-hydroxybenzenepropanoic acid 6,12b-bis(acetyloxy)-12-(benzoyloxy)-2α,3,4,4a,5,6,9,10,11,12,12a,12b-dodecahydro-4,11-dihydroxy-4a,8,13,13-tetramethyl-5-oxo-7,11-methano-1H-cyclodeca[3,4]benz[1,2-b]oxet-9-yl ester], in the data set on MCF7 cells, the apoptosis is 1.25%.

B1: TRAIL: TNF-related apoptosis inducing ligand, purchased from R&D systems (protein, UniProt P50591 1-281, looked up)
Tumor necrosis factor ligand …: MAMMEVQGGPSLGQTCVLIVIFTVLLQSLCVAVTYVYFTNELKQMQDKYSKSGIACFLKEDDSYWDPNDEESMNSPCWQVKWQLRQLVRKMILRTSEETISTVQEKQQNISPLVRERGPQRVAAHITGTRGRSNTLSSPNSKNEKALGRKINSWESSRSGHSFLSNLHLRNGELVIHEKGFYYIYSQTYFRFQEEIKENTKNDKQMVQYIYKYTSYPDPILLMKSARNSCWSKDAEYGLYSIYQGGIFELKENDRIFVSVTNEHLIDMDHEASFFGAFLVG
Consider B1, for which the apoptosis in data set [4] (setting [6]) worked out at 1.75%; in data set [4] (setting [7]) it was 2.7%; in data set [4] (setting [8]), 1.75%.
